{
  "source": "patent US20100249234A1",
  "about": "“METHODS OF REDUCING VIRULENCE IN BACTERIA” (UWM RESEARCH FOUNDATION, INC., priority 2007, published 2010)",
  "assay_type_in_all_cases": "cell-based, Dickeya dadantii 3937 (Ech3937)",
  "key": {"[1]": {"system": "hrpN promoter", "assay": "hrpN promoter activity, GFP reporter plasmid phrpN, flow cytometry (FACS)"}, "[2]": {"system": "hrpA promoter", "assay": "hrpA promoter activity, GFP reporter plasmid phrpA, flow cytometry (FACS)", "experimental": "(§1) FACS analysis of promoter activity of dspE, hrpA, hrpL, hrpN, and hrpS was carried out as described (Peng et al., 2006). Briefly, the wild-type Ech3937 and the mutant strains carrying the promoter reporter plasmid were grown on LB broth at 28° C. overnight and transferred to appropriate media. For FACS analysis, samples were collected by centrifugation, washed with 1× phosphate buffer saline (PBS) at 13,000 rpm for 1 min, and re-suspended in 1×PBS to ca 10^6 CFU/ml prior to being run in a FACS Calibur flow cytometer (BD Biosciences, CA). Three replicates were performed for each treatment.\nTo identify potential compounds that repress activation of T3SS, analogs and isomers of TCA and intermediates of salicylic acid and phenypropanoid biosynthesis pathways in plants were further screened for their effect on Ech3937 hrpA expression by flow cytometry (Table 9). A green fluorescent protein (GFP) reporter plasmid phrpA (pProbe-AT derivative with PCR fragment containing hrpA promoter region) was constructed, resulting in a transcriptional fusion of hrpA promoter with GFP gene. Bacterial cells containing phrpA plasmid were grown in MM supplemented with 0.1 mM of each compound. GFP intensity, which is a measurement of hrpA promoter activity, was measured by flow cytometry."}, "[3]": {"system": "Ech3937", "assay": "Growth of Ech3937 in MM supplemented with compound", "conditions": "0.05, 0.1 and 0.2 mM in MM (FIGS. 2A, 2B)", "description": "Phenolic compounds constitute an important class of organic substances produced by plants. The phenolic compound SA is a signaling molecule that plays a role in host defenses. OCA and TCA are the biosynthetic precursors of SA and are also reported to induce the expression of defense-related genes in plants. OCA, TCA, and SA were examined to elucidate their effects on the expression of T3SS genes. The expression of the T3SS gene hrpN was examined in MM and MM supplemented with OCA, TCA, and SA, at concentrations of 0.05, 0.1, and 0.2 mM, respectively. FIGS. 2A and 2B show the promoter activities of hrpN in Dickeya dadantii 3937 (Ech3937) grown in MM and MM supplemented with 0.05, 0.1, and 0.2 mM OCA, TCA, and SA at 12 h (FIG. 2A) and 24 h (FIG. 2B) post-inoculation. GFP intensity was determined on gated populations of bacterial cells by flow cytometry and analyzed with the Cell Quest software (BD Biosciences, San Jose, Calif.). The growth of Ech3937 in MM supplemented with different concentrations of OCA, TCA and SA was recorded. Compared with MM alone, the average GFP fluorescence intensity of bacterial cells of Ech3937 (phrpN) was increased approximately 4-fold when 0.05 mM of OCA and TCA were added to the medium (FIGS. 2A, 2B).\nThe expression of the T3SS gene hrpA was further examined in MM and MM supplemented with PCA at concentrations of 0.001, 0.005, 0.01, 0.05 and 0.1 mM respectively. FIGS. 16A and 16B show the promoter activities of hrpA in Dickeya dadantii 3937 (Ech3937) grown in minimum medium (MM) and MM supplemented with different amount of p-coumaric acid (PCA) at 12 h (FIG. 16A) and 24 h (FIG. 16B) post-inoculation. GFP intensity was determined on gated populations of bacterial cells by flow cytometry and analyzed with the Cell Quest software (BD Biosciences, San Jose, Calif.). The growth of Ech3937 in MM supplemented with different concentrations of PCA was recorded. Compared with MM alone, the average GFP fluorescence intensity of bacterial cells of Ech3937 (phrpA) was reduced more than 4-fold when 0.05 and 0.1 mM of PCA were added to the medium (FIGS. 16A, 16B)."}, "[4]": {"system": "pPROBE-AT vector", "assay": "GFP expression control base level, pPROBE-AT vector, flow cytometry (FACS)", "conditions": "MM + 0.1 mM compound, 12 h (Table 4)", "experimental": "as §1\n(§2) Since OCA and TCA induced the expression of hrpN, the effect of these two phenolic compounds on the expression of hrpA, hrpL, and hrpS was investigated further. […] GFP intensity was determined on gated populations of bacterial cells by flow cytometry and analyzed with the Cell Quest software (BD Biosciences, San Jose, Calif.). The lines labeled “1” stand for the GFP expression control base level of the Ech3937 containing pPROBE-AT vector; lines labeled “2” stand for the promoter activity of hrpS, hrpL, hrpA and hrpN in Ech3937 in MM; lines labeled “3” stand for the promoter activity of Ech3937 in MM supplemented with 0.1 mM OCA; lines labeled “4” stand for the promoter activity of hrpL mutant WPP96 in MM; lines labeled “5” stand for the promoter activity of hrpL mutant WPP96 in MM supplemented with 0.1 mM OCA. Values are representative of at least two experiments. […] Compared with MM alone, the average GFP fluorescence intensity of bacterial cells of Ech3937 (phrpA) was doubled when 0.1 mM of OCA and TCA were added to the medium (Table 4; FIG. 3). […] The mrp, whose protein product has an ATPase conserved domain (2e-06), was used as a reference gene in this study."}, "[5]": {"system": "rsmB mRNA", "assay": "qRT-PCR relative mRNA level of rsmB", "conditions": "Ech3937 in supplemented MM vs MM alone (normalized to 1)", "experimental": "Bacterial strains were grown in MM. Total RNA from the bacterial cells was isolated by using the TRI reagent method (Sigma, Mo.) and treated with Turbo DNA-free DNase kits (Ambion, TX) as described (Peng et al., 2006). An iScript cDNA Synthesis Kit (Bio-Rad, CA) was used to synthesize cDNA from 0.5 μg of treated total RNA. The Real Master Mix (Eppendorf, Westbury, N.Y.) was used for qRT-PCR reaction to quantify the cDNA level of target genes in different samples. The rplU was used as the endogenous control for data analysis. qRT-PCR data were analyzed using Relative Expression Software Tool as described (Pfaffl, M. W., Horgan, G. W., and Dempfle, L. (2002) Relative expression software tool (REST) for group-wise comparison and statistical analysis of relative expression results in real-time PCR. Nucleic Acids Res 30:e36.)."}, "[6]": {"system": "hrpS promoter", "assay": "hrpS promoter activity, GFP reporter plasmid phrpS, flow cytometry (FACS)", "conditions": "MM + 0.1 mM compound", "experimental": "as §1, §2"}, "[7]": {"system": "mrp promoter", "assay": "mrp (reference gene) promoter activity, GFP reporter pmrp, flow cytometry (FACS)", "conditions": "MM + 0.1 mM compound", "experimental": "as §1, §2"}, "[8]": {"system": "hrpL promoter", "assay": "hrpL promoter activity, GFP reporter plasmid phrpL, flow cytometry (FACS)", "conditions": "MM + 0.1 mM compound", "experimental": "as §1, §2"}, "[9]": {"conditions": "MM + 0.1 mM compound, 12 h (Table 4)"}, "[10]": {"conditions": "hrpL mutant WPP96, MM + 0.1 mM compound, 12 h (Table 4)"}, "[11]": {"conditions": "hrpL mutant WPP96, 12 h (Table 4)"}},
  "data": [
    {"compound": "O=C(O)/C=C/c1ccccc1", "note": "[TCA, t-cinnamic acid]", "values": [
      {"measurement": "increase of average GFP fluorescence intensity of Ech3937 (phrpN) compared with MM alone", "setting": "[1]; 0.05 mM compound added to MM, 12 h and 24 h (FIGS. 2A, 2B)", "value": "approximately 4 fold"},
      {"measurement": "induction of hrpN expression in Ech3937 and in hrpX (WPP67), hrpY (WPP92), hrpS (WPP90) mutants", "setting": "[1]; 0.1 mM compound in MM, 12 h (FIG. 5)", "value": "induced the expression of hrpN in Ech3937, but not in hrpX, hrpY, and hrpS mutants"},
      {"measurement": "GFP Intensity of Ech3937 (phrpN)", "setting": "[1]; MM + 0.2 μM compound, 12 h", "value": "65.1 ± 6.8"},
      {"measurement": "GFP Intensity of Ech3937 (phrpN)", "setting": "[1]; MM + 0.2 μM compound, 24 h", "value": "163 ± 25"},
      {"measurement": "GFP Intensity of Ech3937 (phrpN)", "setting": "[1]; MM + 0.5 μM compound, 12 h", "value": "73.4 ± 4.2"},
      {"measurement": "GFP Intensity of Ech3937 (phrpN)", "setting": "[1]; MM + 0.5 μM compound, 24 h", "value": "158 ± 20"},
      {"measurement": "GFP Intensity of Ech3937 (phrpN)", "setting": "[1]; MM + 5 μM compound, 12 h", "value": "134 ± 5.6"},
      {"measurement": "GFP Intensity of Ech3937 (phrpN)", "setting": "[1]; MM + 5 μM compound, 24 h", "value": "266 ± 14"},
      {"measurement": "GFP Intensity of Ech3937 (phrpN)", "setting": "[1]; MM + 10 μM compound, 12 h", "value": "147 ± 18"},
      {"measurement": "GFP Intensity of Ech3937 (phrpN)", "setting": "[1]; MM + 10 μM compound, 24 h", "value": "284 ± 12"},
      {"measurement": "GFP intensity (Mean Fluorescence Intensity) of Ech3937 (phrpN)", "setting": "[1]; [9]", "value": "103 ± 1"},
      {"measurement": "GFP intensity (Mean Fluorescence Intensity) of WPP96 (phrpN)", "setting": "[1]; [10]", "value": "3.3 ± 0"},
      {"measurement": "average GFP fluorescence intensity of Ech3937 (phrpA) compared with MM alone", "setting": "[2]; 0.1 mM compound, 12 h", "value": "doubled"},
      {"measurement": "expression of hrpA, GFP intensity (Mean Fluorescence Intensity), Ech3937 carrying phrpA", "setting": "[2]; MM + 0.1 mM compound, 6 h (Table 9)", "value": "22.3 ± 2.1"},
      {"measurement": "GFP intensity (Mean Fluorescence Intensity) of Ech3937 (phrpA)", "setting": "[2]; [9]", "value": "78 ± 0"},
      {"measurement": "expression of hrpA, GFP intensity (Mean Fluorescence Intensity), Ech3937 carrying phrpA", "setting": "[2]; MM + 0.1 mM compound, 12 h (Table 9)", "value": "133.9 ± 12.9"},
      {"measurement": "expression of hrpA, GFP intensity (Mean Fluorescence Intensity), Ech3937 carrying phrpA", "setting": "[2]; MM + 0.1 mM compound, 24 h (Table 9)", "value": "203.7 ± 16.1"},
      {"measurement": "GFP intensity (Mean Fluorescence Intensity) of WPP96 (phrpA)", "setting": "[2]; [10]", "value": "6.2 ± 0.6"},
      {"measurement": "bacterial growth of Ech3937 in supplemented MM", "setting": "[3]", "value": "No reduction of bacterial growth"},
      {"measurement": "GFP intensity (Mean Fluorescence Intensity) of Ech3937 (pPROBE-AT)", "setting": "[4]", "value": "1.9 ± 0"},
      {"measurement": "rsmB mRNA relative expression ratio", "setting": "[5]", "value": 1.58},
      {"measurement": "GFP intensity of Ech3937 (phrpS) compared with MM alone", "setting": "[6]; 12 h", "value": "slightly lower GFP intensity"},
      {"measurement": "GFP intensity (Mean Fluorescence Intensity) of Ech3937 (phrpS)", "setting": "[6]; 12 h (Table 4)", "value": "54 ± 2"},
      {"measurement": "GFP intensity (Mean Fluorescence Intensity) of WPP96 (phrpS)", "setting": "[6]; [11]", "value": "360 ± 16"},
      {"measurement": "mrp expression in Ech3937 (pmrp) compared with MM", "setting": "[7]; 12 h", "value": "slightly higher mrp expression"},
      {"measurement": "GFP intensity (Mean Fluorescence Intensity) of Ech3937 (pmrp)", "setting": "[7]; reference gene, 12 h (Table 4)", "value": "105 ± 0.3"},
      {"measurement": "promoter activity of hrpL compared with MM alone", "setting": "[8]; Ech3937, 12 h", "value": "slightly higher promoter activity"},
      {"measurement": "GFP intensity (Mean Fluorescence Intensity) of Ech3937 (phrpL)", "setting": "[8]; 12 h (Table 4)", "value": "19 ± 1"},
      {"measurement": "GFP intensity (Mean Fluorescence Intensity) of WPP96 (phrpL)", "setting": "[8]; [11]", "value": "331 ± 27"}
    ]}
  ]
}
